Here are results for 1 molecule from PMC6600574 (Molecules, 2019).

Entries after “also recorded” stand apart in the source; their conditions may differ. Bounds are passed on as bounds.

The test system of data set [1] is recombinant human UGT1A7, 1A10, and UGT1A8. Put plainly: Glucuronidation by recombinant human UGTs. The format is in vitro ADME. Particulars: incubation with recombinant human UGT1A7, 1A10 and UGT1A8.
The target of the next data set is T1, CYP1B1 (Homo sapiens, UniProt Q16678).
T1 construct: purchased BD Biosciences Discovery Labware (Bedford, MA, USA)
T1 sequence (Q16678 1-543): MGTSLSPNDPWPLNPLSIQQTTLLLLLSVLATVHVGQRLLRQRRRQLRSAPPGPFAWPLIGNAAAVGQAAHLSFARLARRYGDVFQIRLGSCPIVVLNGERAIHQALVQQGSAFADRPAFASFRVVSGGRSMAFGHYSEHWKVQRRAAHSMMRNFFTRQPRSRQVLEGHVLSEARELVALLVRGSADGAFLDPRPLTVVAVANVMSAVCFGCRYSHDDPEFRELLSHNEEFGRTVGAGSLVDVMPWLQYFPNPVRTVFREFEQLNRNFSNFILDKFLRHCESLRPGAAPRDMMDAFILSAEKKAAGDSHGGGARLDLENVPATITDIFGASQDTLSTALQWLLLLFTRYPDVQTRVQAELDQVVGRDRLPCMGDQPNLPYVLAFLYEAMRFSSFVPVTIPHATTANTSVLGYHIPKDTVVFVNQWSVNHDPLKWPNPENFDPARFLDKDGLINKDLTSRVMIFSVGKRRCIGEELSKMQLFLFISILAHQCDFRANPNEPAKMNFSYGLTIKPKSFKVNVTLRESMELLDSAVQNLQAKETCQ
Put plainly: Inhibition of recombinant CYP oxidation (fluorescent coumarin substrate). The format is in vitro ADME. The note with it: read-out: Recombinant CYP IC50 (µM) with 95% confidence intervals. On the procedure:
(§1) Incubations were carried out in a total volume of 100 µl of 100 mM Tris-HCl buffer (pH 7.4) in all black, flat-bottom Costar 96-well plates (Corning Incorporated, Corning, NY, USA). […] The samples were then preincubated at 37 °C for 10 min. The reactions were initiated by the addition of NADPH, and 0–10 µM 7-hydroxycoumarin was used as the standard. The fluorescent signal was measured with a Victor^2 1420 multilabel plate counter (PerkinElmer Lifesciences Wallac, Turku, Finland) with excitation and emission wavelengths of 405 and 460 nm, respectively. Fluorescence was monitored every 2 min for 40 min from where the concentration was calculated at the various time points. From these, oxidation rates (µM/min) and the relative remaining activity of the sample at different concentrations were calculated. The data were fit to sigmoidal dose-response curves with nonlinear regression, and IC50 values (the concentration at which the sample reduced the metabolism of the CYP substrate by 50%) were determined. […] This was analyzed using nonlinear equations in Graph Pad Prism, which produced IC50 values and its 95% confidence interval as the results.

Another data set deals with T2, recombinant CYP 2C19 (Homo sapiens, UniProt P33261).
T2 construct: purchased BD Biosciences Discovery Labware (Bedford, MA, USA)
T2 sequence (P33261 whole entry): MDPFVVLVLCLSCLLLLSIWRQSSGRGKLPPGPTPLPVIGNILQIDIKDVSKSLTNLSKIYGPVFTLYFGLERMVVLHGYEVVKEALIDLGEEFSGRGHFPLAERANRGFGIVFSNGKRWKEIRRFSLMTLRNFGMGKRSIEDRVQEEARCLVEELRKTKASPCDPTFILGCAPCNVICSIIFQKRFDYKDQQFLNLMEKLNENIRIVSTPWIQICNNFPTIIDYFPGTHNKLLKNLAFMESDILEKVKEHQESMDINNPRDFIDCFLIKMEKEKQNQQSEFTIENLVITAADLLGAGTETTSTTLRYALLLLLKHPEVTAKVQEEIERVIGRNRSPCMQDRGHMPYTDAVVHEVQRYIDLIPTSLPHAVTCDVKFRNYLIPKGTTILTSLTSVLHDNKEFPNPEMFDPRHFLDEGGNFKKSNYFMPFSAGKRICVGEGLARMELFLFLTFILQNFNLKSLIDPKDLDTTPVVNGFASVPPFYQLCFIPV
The description is as above. The format is in vitro ADME. The note with it: CYP 2C19, substrate TFD032, 5 nM recombinant CYP, verbascoside 0.4-50 µM. As to the method: as §1

For another data set, the target named is T3, CYP1A2 (Homo sapiens, UniProt P05177).
T3 construct: purchased BD Biosciences Discovery Labware (Bedford, MA, USA)
T3 sequence (P05177 whole entry): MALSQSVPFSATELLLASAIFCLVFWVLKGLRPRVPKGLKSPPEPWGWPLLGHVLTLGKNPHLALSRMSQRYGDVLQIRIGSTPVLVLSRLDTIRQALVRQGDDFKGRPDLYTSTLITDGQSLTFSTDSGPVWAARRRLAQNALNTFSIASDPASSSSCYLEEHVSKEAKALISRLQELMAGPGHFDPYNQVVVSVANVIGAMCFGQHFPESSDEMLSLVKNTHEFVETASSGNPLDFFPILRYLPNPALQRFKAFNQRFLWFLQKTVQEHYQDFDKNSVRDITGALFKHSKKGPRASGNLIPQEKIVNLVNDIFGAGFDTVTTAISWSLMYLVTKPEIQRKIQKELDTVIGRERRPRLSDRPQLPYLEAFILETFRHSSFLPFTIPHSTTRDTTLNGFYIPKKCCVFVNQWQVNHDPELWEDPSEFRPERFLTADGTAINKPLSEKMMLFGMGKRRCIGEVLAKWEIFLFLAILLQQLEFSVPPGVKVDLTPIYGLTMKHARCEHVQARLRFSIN
Described as above. The format is in vitro ADME. The note with it: read-out: Recombinant CYP IC50 (µM) with 95% confidence intervals. On the procedure:
as §1

A further data set addresses T4, recombinant CYP 2A6 (Homo sapiens, UniProt P11509).
T4 construct: purchased BD Biosciences Discovery Labware (Bedford, MA, USA)
T4 sequence (P11509 1-494): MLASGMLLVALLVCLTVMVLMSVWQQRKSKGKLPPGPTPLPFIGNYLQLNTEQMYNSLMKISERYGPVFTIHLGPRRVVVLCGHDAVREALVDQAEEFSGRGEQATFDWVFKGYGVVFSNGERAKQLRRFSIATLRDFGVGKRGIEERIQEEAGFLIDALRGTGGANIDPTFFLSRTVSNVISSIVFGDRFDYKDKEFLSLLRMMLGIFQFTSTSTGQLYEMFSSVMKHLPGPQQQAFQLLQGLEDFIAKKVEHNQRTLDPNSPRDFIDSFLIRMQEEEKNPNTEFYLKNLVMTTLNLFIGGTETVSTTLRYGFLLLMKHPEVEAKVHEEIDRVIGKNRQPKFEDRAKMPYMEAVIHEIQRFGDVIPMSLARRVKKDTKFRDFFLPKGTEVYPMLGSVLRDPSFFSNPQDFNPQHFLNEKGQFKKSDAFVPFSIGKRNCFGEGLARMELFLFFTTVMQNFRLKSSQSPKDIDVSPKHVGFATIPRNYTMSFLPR
The description is as above. The format is in vitro ADME. Particulars: CYP 2A6, substrate coumarin, 5 nM recombinant CYP, verbascoside 0.4-50 µM. On the procedure: as §1

In the next data set the target is T5, CYP3A4 (Homo sapiens, UniProt P08684).
T5 construct: purchased BD Biosciences Discovery Labware (Bedford, MA, USA)
T5 sequence (P08684 whole entry): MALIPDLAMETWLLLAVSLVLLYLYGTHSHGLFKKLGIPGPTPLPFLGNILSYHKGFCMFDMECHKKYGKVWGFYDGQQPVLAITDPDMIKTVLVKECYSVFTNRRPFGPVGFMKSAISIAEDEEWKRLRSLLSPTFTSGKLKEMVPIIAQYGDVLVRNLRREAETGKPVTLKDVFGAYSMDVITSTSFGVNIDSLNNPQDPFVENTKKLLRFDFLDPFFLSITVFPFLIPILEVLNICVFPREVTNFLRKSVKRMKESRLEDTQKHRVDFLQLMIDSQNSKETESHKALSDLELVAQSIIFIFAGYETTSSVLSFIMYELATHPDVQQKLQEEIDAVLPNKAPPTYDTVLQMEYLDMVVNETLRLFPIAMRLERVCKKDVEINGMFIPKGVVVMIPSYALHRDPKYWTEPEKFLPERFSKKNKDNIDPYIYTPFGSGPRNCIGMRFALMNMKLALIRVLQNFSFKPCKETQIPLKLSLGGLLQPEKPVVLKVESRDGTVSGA
The data set is described as above. The format is in vitro ADME. The note with it: read-out: Recombinant CYP IC50 (µM) with 95% confidence intervals. On the procedure: as §1

The target in another data set is T6, CYP2D6 (Homo sapiens, UniProt P10635).
T6 construct: purchased BD Biosciences Discovery Labware (Bedford, MA, USA)
T6 sequence (P10635 whole entry): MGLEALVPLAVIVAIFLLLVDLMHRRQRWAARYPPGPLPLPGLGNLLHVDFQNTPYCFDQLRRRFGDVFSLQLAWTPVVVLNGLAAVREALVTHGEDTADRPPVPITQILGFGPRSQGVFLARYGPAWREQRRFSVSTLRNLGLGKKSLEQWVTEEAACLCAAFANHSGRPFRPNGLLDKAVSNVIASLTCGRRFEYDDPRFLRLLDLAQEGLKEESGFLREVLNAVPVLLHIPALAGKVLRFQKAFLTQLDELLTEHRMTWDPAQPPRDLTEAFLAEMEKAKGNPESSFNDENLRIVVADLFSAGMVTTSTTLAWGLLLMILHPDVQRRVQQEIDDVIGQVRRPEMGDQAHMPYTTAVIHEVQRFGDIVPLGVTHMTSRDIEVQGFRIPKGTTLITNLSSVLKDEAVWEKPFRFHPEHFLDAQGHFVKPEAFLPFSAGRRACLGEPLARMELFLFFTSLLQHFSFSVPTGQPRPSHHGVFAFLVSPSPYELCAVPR
The description is as above. The format is in vitro ADME. Particulars: read-out: Recombinant CYP IC50 (µM) with 95% confidence intervals. As to the method:
as §1

On the set-up of data set [2]: method as in Chen et al. (2012) [15]. The note with it: DPPH in methanol; ref Chen et al. (2012) [15]; cited from earlier work.

In the case of `C[C@@H]1O[C@@H](O[C@@H]2[C@@H](O)[C@H](OCCc3ccc(O)c(O)c3)O[C@H](CO)[C@H]2OC(=O)/C=C/c2ccc(O)c(O)c2)[C@H](O)[C@H](O)[C@H]1O` [Verbascoside], the Metabolites formed result in data set [1] is listed as “low levels of glucuronide metabolites”. In addition, the IC50 at 40 min on CYP1B1 (human, recombinant CYP1B1, pH 7.4, probe TFD008 1 (3-(4-phenylacetate)-6-chlorocoumarin), 10 µM) was over 50 µM; on CYP1A2 (human, recombinant CYP1A2, pH 7.4), over 50 µM; at CYP3A4 (human, recombinant CYP3A4, pH 7.4, probe OCA369 (3-(3-benzyloxo)phenyl-7-methoxycoumarin), 10 µM), over 50 µM; on CYP2D6 (human, recombinant CYP2D6, pH 7.4, probe TFD023 (3-(4-phenyl)-7-methoxycoumarin), 10 µM), over 50 µM. Further, the IC50 at CYP1B1 was 86 µM; on CYP1A2, 83 µM; on CYP3A4, 314 µM; at CYP2D6, 131 µM; in data set [2], 11.4 µM. The “Recombinant CYP IC50 (µM) with 95% confidence intervals” value on recombinant CYP 2C19 was “Stimulation ^c”; at recombinant CYP 2C19 (listed as verbascoside), “did not inhibit; also recorded: weak ability to stimulate”; on recombinant CYP 2A6 it was “No inhibition”; on recombinant CYP 2A6 (listed as verbascoside), “did not inhibit”.
